Values quoted from earlier work, collected in patent US6576617B2, “Direct action anti-mycotic” (International Fiber Corporation, priority 1999, dated 2003).

How the values were obtained:
[1] = test system: mold, yeast, or fungus growth; conditions: non-liquid foods for human consumption; conventional natamycin
[2] = test system: mold, yeast, and fungal growth; conditions: agar medium

For C[C@@H]1C/C=C/C=C/C=C/C=C/[C@H](O[C@@H]2O[C@H](C)[C@@H](O)[C@H](N)[C@@H]2O)C[C@@H]2O[C@](O)(C[C@@H](O)C[C@H]3O[C@@H]3/C=C/C(=O)O1)C[C@H](O)[C@H]2C(=O)O [natamycin], the “concentration necessary for effective mold, yeast, and fungus control” value [1] is given as “greater than 5 ppm” and the “concentration with anti-mycotic activity” value [2] is given as at least 1 ppm.
